SMILES strings stand for the structures.

One compound from publication PMC9352670 (2022) can be followed below.

Assay [1] has as its system Dm-LS-1 (DNA, aptamer, HFNAP: side-chain on 5' nucleobase of each coding trinucleotide, positions 19,22,25,...,61 (codon key Figure 1B)) GAAAGCAGGACTGGAGATCCGCGCCGCTTTTATCCCTAGTCCCTTTTACCCTACTTCCCCTTACAGACCGAACTAGAGCTT
Nature of the assay: microscale thermophoresis. The conditions noted are these: 5 mM KCl, 1 mM MgCl2, 1 mM CaCl2 added; HBS-P+ buffer, 25 °C. In general terms: Microscale thermophoresis detects binding through changes in fluorescence in a small temperature gradient.

In assay [2] the test system is Dm-HS-9 (DNA, aptamer, HFNAP: side-chain on 5' nucleobase of each coding trinucleotide, positions 19,22,25,...,61 (codon key Figure 1B)) GAAAGCAGGACTGGAGATCGATTATTGTGATTTTGATCTCCCCCATATCCCCTTCCCTACTCGCAGACCGAACTAGAGCTT
Briefly: microscale thermophoresis. The note with it: 5 mM KCl, 1 mM MgCl2, 1 mM CaCl2 added; HBS-P+ buffer, 25 °C.

The subject of assay [3] is Dm-HS-1 ∆ s.c. (DNA, aptamer, none (no side-chains)) GAAAGCAGGACTGGAGATCGATTCTGGTGCTGTTGATCTCCGCCATTGTGCTCCTACCCTTCACAGACCGAACTAGAGCTT
Nature of the assay: microscale thermophoresis. The note with it: 5 mM KCl, 1 mM MgCl2, 1 mM CaCl2 added; HBS-P+ buffer, 25 °C.

The test system of assay [4] is Dm-HS-9 ∆ s.c. (DNA, aptamer, none (no side-chains)) GAAAGCAGGACTGGAGATCGATTATTGTGATTTTGATCTCCCCCATATCCCCTTCCCTACTCGCAGACCGAACTAGAGCTT
Briefly: microscale thermophoresis. The conditions noted are these: 5 mM KCl, 1 mM MgCl2, 1 mM CaCl2 added; HBS-P+ buffer, 25 °C.

For assay [5], the system named is Dm-reference-based-random-after-selection-1 (DNA, other, HFNAP: side-chain on 5' nucleobase of each coding trinucleotide, positions 19,22,25,...,61 (codon key Figure 1B)) GAAAGCAGGACTGGAGATCCATGTCCACCGTACCGCTACTGCTACTATTTGCTTCGGTACTGTCAGACCGAACTAGAGCTT
Nature of the assay: microscale thermophoresis. The note with it: 5 mM KCl, 1 mM MgCl2, 1 mM CaCl2 added; HBS-P+ buffer, 25 °C.

The subject of assay [6] is Dm-HS-1 (DNA, aptamer, HFNAP, side-chains on nucleobases: fluorophenyl at 19; allylamine at 22, 25, 37; alcohol at 28, 34, 49; phenol at 31, 46; cyclopentyl at 40; cyclopropyl at 43, 58; imidazole at 52, 55, 61) GAAAGCAGGACTGGAGATCGATTCTGGTGCTGTTGATCTCCGCCATTGTGCTCCTACCCTTCACAGACCGAACTAGAGCTT
Nature of the assay: gel filtration, radiolabelled ligand. The conditions noted are these: 140 mM NaCl, 5 mM KCl, 1 mM MgCl2, 1 mM CaCl2; 20 mM Tris-HCl pH 7.4, 0.05% Tween 20, 25 °C; [3H]-daunomycin mixed with unlabelled; control sequence subtracted. (In general: In gel filtration, larger molecules generally elute earlier.)

On to `COc1cccc2c1C(=O)c1c(O)c3c(c(O)c1C2=O)C[C@@](O)(C(C)=O)C[C@@H]3O[C@H]1C[C@H](N)[C@H](O)[C@H](C)O1`, for which the Kd was found to be 1.11 ± 0.06 µM in assay [1], 0.00113 ± 0.00045 µM in assay [2], 63.6 ± 2.4 µM in assay [5] and 0.0126 ± 0.0035 µM in assay [6]. Moreover, the entries for the “Kd ∆ side-chains” value in assay [3] and in assay [4] were 2.61 ± 0.19 µM and 5.00 ± 0.14 µM, respectively.

One may read the Kd as the free concentration of one partner at which half of the binding sites on the other are occupied at equilibrium, for simple one-to-one binding.
